Patent publication US20060247255A1, “Method for preparing a stable gatifloxacin composition” (priority 2005, published 2006)

Assay: Polymorphic conversion testing after compression at 1 ton pressure and storage in different environments (DSC/FT-IR)
Format: physicochemical
Procedure: Polymorphic Conversion Testing after Compression at 1 Ton Pressure and Storage in Different Environments.
Compacts of glatifloxacin anhydrous and gatifloxacin hemihydrate were prepared and placed in chambers that were equilibrated as follows:
(i) 25° C. and 21% relative humidity (RH);
(iii) 40° C. and 21% RH; and
Compacts of glatifloxacin anhydrous and gatifloxacin hemihydrate were evaluated by DSC and FT-IR immediately after compression, after 2 days of exposure under the above conditions, and after 6 or 7 days of exposure.
Conversion is identified as a change in DSC thermogram or FT-IR pattern.

[1] = 6 or 7 Days at 25° C. and 21% RH
[2] = 6 or 7 Days at 25° C. and 75% RH
[3] = 6 or 7 Days at 40° C. and 21% RH
[4] = 6 or 7 Days at 40° C. and 75% RH

| Conversion (change in DSC thermogram) (2 Days at 25° C. and 21% RH) | Conversion (change in FT-IR pattern) (2 Days at 25° C. and 21% RH) | Conversion (change in DSC thermogram) (2 Days at 25° C. and 75% RH) | Conversion (change in FT-IR pattern) (2 Days at 25° C. and 75% RH) | Conversion (change in DSC thermogram) (2 Days at 40° C. and 21% RH) | Conversion (change in FT-IR pattern) (2 Days at 40° C. and 21% RH) | Conversion (change in DSC thermogram) (2 Days at 40° C. and 75% RH) | Conversion (change in FT-IR pattern) (2 Days at 40° C. and 75% RH) | Conversion (change in DSC thermogram) [1] | Conversion (change in FT-IR pattern) [1] | Conversion (change in DSC thermogram) [2] | Conversion (change in FT-IR pattern) [2] | Conversion (change in DSC thermogram) [3] | Conversion (change in FT-IR pattern) [3] | Physical stability [3] | Conversion (change in DSC thermogram) [4] | Conversion (change in FT-IR pattern) [4] | Conversion (change in DSC thermogram) (Immediately after compression) | Conversion (change in FT-IR pattern) (Immediately after compression) | SMILES | also measured |
| --- | --- | --- | --- | --- | --- | --- | --- | --- | --- | --- | --- | --- | --- | --- | --- | --- | --- | --- | --- | --- |
| No/No | No/No | No/No | No/No | No/No | No/No | No/No | No/No | No/No | No/No | Yes | No | No/No | No/No | did not effect | Yes/Yes | Yes/Yes | No/No | No/No | COc1c(N2CCNC(C)C2)c(F)cc2c(=O)c(C(=O)O)cn(C3CC3)c12 (stereo not shown) [Gatifloxacin Hemihydrate, 1-cyclopropyl-6-fluoro-1,4-dihydro-8-methoxy-7-(3-methyl-1-piperazinyl)-4-oxo-3-quinolinecarboxylic acid] | Physical stability (approximately 75% RH for a period of at least 6 days): deleteriously effects the physical stability |
| No/No | No/No | No/No | No/No | No/No | No/No | Yes/Yes | Yes/Yes | No/No | No/No | Yes/Yes | Yes/Yes | No/No | No/No | did not effect | Yes/Yes | Yes/Yes | No/No | No/No | COc1c(N2CCNC(C)C2)c(F)cc2c(=O)c(C(=O)O)cn(C3CC3)c12 (stereo not shown) [Gatifloxacin Anhydrous, 1-cyclopropyl-6-fluoro-1,4-dihydro-8-methoxy-7-(3-methyl-1-piperazinyl)-4-oxo-3-quinolinecarboxylic acid] | Physical stability (approximately 75% RH for a period of 2 days): deleteriously effects the physical stability |
